No end group written: not given here.
How the values were obtained:
[1] = tested on: NEP; assay: Modulation of NEP activity, FRET substrate Abz-RGFK(Dnp)-OH; assay type: biochemical, human; conditions: 10 µM peptide, 1.5 ng NEP, Abz-RGFK(Dnp)-OH (3.5 µM in method, 10 µM in table note), Tris HCl 50 mM, pH 7.5, 37 °C, 15 min, fluorescence 320/420 nm, triplicate
Protocol: The results were obtained by incubating the enzymes with their FRET substrates (10 µM) in a final volume of 100 µL. For the ACE assays, the used buffer was Tris HCl 100 mM, NaCl 50 mM and ZnCl2 10 µM, pH 7.0. For NEP, the assays were made in Tris HCl 50 mM, pH 7.5 buffer. All reactions occurred at 37 °C, in a Victor 3 fluorimeter (Perkin–Elmer) adjusted for excitation and emission readings at 320 and 420 nm, respectively, for 15 min (one reader per minute). Results were obtained in triplicate and analyzed on GraFit 5 software.
For ACE assays, 10 µM of each peptide was incubated with 3.0 ng of peptidase and 10 µM of Abz-FRK (Dnp) P-OH substrate, in Tris HCl 100 mM, NaCl 50 mM and ZnCl2 10 µM, pH 7.0 buffer. For NEP, 10 µM of TsHpt-I or -II was incubated with 1.5 ng of peptidase, 3.5 µM Abz-RGFK (Dnp)-OH in Tris HCl 50 mM, pH 7.5 buffer. All reactions occurred at 37 °C, in a final volume of 100 µL, in a Victor 3 fluorimeter (Perkin–Elmer, Waltham, MA, USA) adjusted for excitation and emission readings at 320 and 420 nm, respectively, for 15 min (one reader per minute). Results were obtained in triplicate and analyzed using GraFit 5 (Erithacus software, East Grinstead, West Sussex, UK).

[2] = tested on: T1, ACE; assay: Stability of peptides against ACE (susceptibility to hydrolysis, RP-HPLC); assay type: in vitro ADME; conditions: rabbit, isolated ACE (angiotensin-converting enzyme); 30 µM peptide, ACE 3.0 ng, Tris HCl 100 mM, NaCl 50 mM, ZnCl2 10 µM, pH 7.0, 4 h, 37 °C, RP-HPLC C18, UV 214 nm; read-out: hydrolysis products after incubation with ACE
T1 construct: Angiotensin Converting Enzyme (ACE) from rabbit lung; purchased Sigma-Aldrich; host or cells: rabbit lung tissue
Protocol: Figure 1 Analysis of the susceptibility to hydrolysis of the hypotensins over the vasopeptidases NEP and ACE. Incubations were carried out in Tris HCl 100 mM, NaCl 50 mM and ZnCl2 10 µM, pH 7.0, for the ACE assays, and, for the NEP assays, in Tris HCl 50 mM, pH 7.5 buffer, for four hours at 37 °C. (A) TsHpt-I control (black line) and after incubation with NEP (red line). (B) TsHpt-II control (black line) and TsHpt-II incubated with NEP (red line). (C) TsHpt-I control (black line) and incubated with ACE (red line). (D) TsHpt-II control (black line) and after incubation with ACE (red line). The samples of negative and experimental controls (A) TsHpt-I and (B) TsHpt-II are shown on the left and right, respectively. The hydrolysis products were considered ≤5%. The gradient used was 20% to 60% solvent B in 20 min, and 60% to 100% solvent B in 5 min (flow 1 mL/min, absorbance at 214 nm). Restek Ultra C-18 5 µm column, 250 × 4.6 mm.
The synthetic peptides TsHpt-I and TsHpt-II (30 µM) were incubated with ACE (3.0 ng), in Tris HCl 100 mM, NaCl 50 mM and ZnCl2 10 µM, pH 7.0 buffer, and NEP (1.5 ng), in Tris HCl 50 mM, pH 7.5 buffer, at 37 °C for 4 h. Samples containing only the synthetic peptides were used as the negative control. After incubation, samples were analyzed by reverse phase chromatography on RP-HPLC (Shimadzu, Kyoto, Japan), using a Restek Ultra C-18 column (5 µm, 250 × 4.6 mm). […]

Sequence | NEP Inhibition (%) [1] [%] | metabolised at 4 h, 30 µM [2] [%]
AEIDFSGIPEDIIKEIKETNAKPPA [TsHpt-II] | 11 | ≤ 5
AEIDFSGIPEDIIKQIKETNAKPPA [TsHpt-I] | 75 | ≤ 5
